The text below walks through data of US5658942A, “Octahydronaphthalene oxime compounds for cholesterol synthesis inhibition” (Sankyo Company, Limited, priority 1987, dated 1997).

Each structure is given as a SMILES string. pIC50: −log10 of the molar value.

In one assay the test system is 3-hydroxy-3-methylglutaryl-coenzyme A reductase.
Test: not given
The following applies: enzymes or cultured cells from experimental animals; competing with HMG-CoA reductase; cited from earlier work.
Regarding `CC1C=CC2=CCCC(O)C2C1CCC1CC(O)CC(=O)O1` (stereo not shown) [ML-236A], the “inhibition of the biosynthesis of cholesterol” value was “inhibit the biosynthesis of cholesterol”.
Regarding `CCC(C)C(=O)OC1CCC=C2C=CC(C)C(CCC3CC(O)CC(=O)O3)C21` (stereo not shown) [ML-236B], the “inhibition of the biosynthesis of cholesterol” value was “inhibit the biosynthesis of cholesterol”.

A further assay deals with serum cholesterol.
Test: not given
The following applies: animals; J. Antibiotics 29, 1346 (1976); cited from earlier work.
Turning to `CC1C=CC2=CCCC(O)C2C1CCC1CC(O)CC(=O)O1` (stereo not shown) [ML-236A], the “reduction of serum cholesterol levels” value is on record as “significantly reduce”.
Turning to `CCC(C)C(=O)OC1CCC=C2C=CC(C)C(CCC3CC(O)CC(=O)O3)C21` (stereo not shown) [ML-236B], the “reduction of serum cholesterol levels” value is given as “significantly reduce”.

The next assay concerns the target T1, 3-hydroxy-3-methyl-glutaryl CoA reductase (Rattus norvegicus, UniProt P51639).
T1 construct: from tissue; host or cells: enzyme system separated from an experimental animal
T1 sequence (P51639 1-887): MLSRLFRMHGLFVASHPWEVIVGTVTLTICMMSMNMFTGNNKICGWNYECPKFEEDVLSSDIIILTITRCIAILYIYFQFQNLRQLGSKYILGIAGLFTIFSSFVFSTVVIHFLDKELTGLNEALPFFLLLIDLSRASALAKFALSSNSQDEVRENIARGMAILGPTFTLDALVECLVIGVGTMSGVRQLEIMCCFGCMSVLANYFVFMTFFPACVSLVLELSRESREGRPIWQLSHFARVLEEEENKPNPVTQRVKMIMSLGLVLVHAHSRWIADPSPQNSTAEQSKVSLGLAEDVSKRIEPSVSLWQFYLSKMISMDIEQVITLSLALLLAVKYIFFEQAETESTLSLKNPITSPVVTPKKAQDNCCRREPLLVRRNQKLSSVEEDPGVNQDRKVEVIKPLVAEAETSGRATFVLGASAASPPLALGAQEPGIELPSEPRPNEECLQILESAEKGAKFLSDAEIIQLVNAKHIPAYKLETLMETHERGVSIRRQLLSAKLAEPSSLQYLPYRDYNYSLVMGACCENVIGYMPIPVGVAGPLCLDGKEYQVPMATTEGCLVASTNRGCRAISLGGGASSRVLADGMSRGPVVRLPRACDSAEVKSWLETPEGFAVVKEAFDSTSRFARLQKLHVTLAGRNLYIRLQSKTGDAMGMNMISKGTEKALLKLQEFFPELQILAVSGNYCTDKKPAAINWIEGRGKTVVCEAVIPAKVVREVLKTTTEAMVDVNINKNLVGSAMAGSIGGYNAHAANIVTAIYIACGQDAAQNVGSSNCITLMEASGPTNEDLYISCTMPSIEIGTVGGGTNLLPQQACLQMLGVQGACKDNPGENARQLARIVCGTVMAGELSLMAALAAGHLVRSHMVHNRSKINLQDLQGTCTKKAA
The assay can be described thus: inhibition of 3-hydroxy-3-methyl-glutaryl CoA reductase (method of Kuroda et al.). In kind it is biochemical. Particulars: read-out: IC50 (concentration to achieve 50% inhibition of 3-hydroxy-3-methyl-glutaryl CoA reductase). From the text: The compounds of the present invention have a marked ability to reduce the levels of serum cholesterol. Specifically, the biosynthesis of chlolesterol in an enzyme system or a culture cell system separated from an experimental animal is inhibited through competition with the rate limiting enzyme of 3-hydroxy-3-methylglutaryl-CoA reductase. […] The determination of the inhibitory activity of the compounds was made using the method of Kuroda et al ["Biochimica et Biophysica Acta" Vol. 486, pp. 70-81(1977)] which is a modification of the known method of D. J. Shapiro et al ["Analytical Biochemistry" Vol. 31, pp. 383-390(1969)] with some improvements.
The results are shown in Table 2, in which IC50 is the concentration to achieve 50% inhibition of 3-hydroxy-3-methyl-glutaryl CoA reductase (nM).
Regarding `CCC(C)C(=O)OC1CCC(=NO)C2=CC(=O)C(C)C(CCC(O)CC(O)CC(=O)O)C21` (stereo not shown) [Compound A, Sodium 1-(2-methylbutyryl)-3,4-dihydro-6-oxo-4-hydroxyiminoiso-ML-236A carboxylate, reference compound], the pIC50 was 7.45.
For the molecule `CCC(C)C(=O)OC1CCC(=NOC)C2=CC(=O)C(C)C(CCC(O)CC(O)CC(=O)O)C21` (stereo not shown) [Compound B, Sodium 1-(2-methylbutyryl)-3,4-dihydro-6-oxo-4-methoxyiminoiso-ML-236A carboxylate, reference compound], the pIC50 was 7.40.
In the case of `CCC(C)C(=O)OC1CCC(=NOCc2ccccc2)C2=CC(=O)C(C)C(CCC(O)CC(O)CC(=O)OCc3ccccc3)C21` (stereo not shown) [Example 1(c), Benzyl-(2-methylbutyryl)-3,4-dihydro-6-oxo-4-benzyl-oxyiminoiso-ML-236A carboxylate], the pIC50 is 7.48.
For `CCC(C)C(=O)OC1CCC(=NOCc2ccc(F)cc2)C2=CC(=O)C(C)C(CCC(O)CC(O)CC(=O)O)C21` (stereo not shown) [Example 3b, Sodium 1-(2-methylbutyryl)-3,4-dihydro-6-oxo-4-(4-fluorobenzyl)oxyiminoiso-ML-236A Carboxylate], the pIC50 was 7.58.
As to `CCC(C)C(=O)OC1CCC(=NOCc2ccc([N+](=O)[O-])cc2)C2=CC(=O)C(C)C(CCC(O)CC(O)CC(=O)O)C21` (stereo not shown) [Example 4b, Sodium 1-(2-methylbutyryl)-3,4-dihydro-6-oxo-4-(4-nitrobenzyl)oxyiminoiso-ML-236ACarboxylate], the pIC50 is 7.68.
Consider `CCC(C)C(=O)OC1CCC(=NOCc2ccccc2CO)C2=CC(=O)C(C)C(CCC(O)CC(O)CC(=O)O)C21` (stereo not shown) [Example 6b, Sodium 1-(2-methylbutyryl)-3,4-dihydro-6-oxo-4-(2-hydroxymethylbenzyl)oxyiminoiso-ML-236A Carboxylate], for which the pIC50 is 7.74.
Still for that read-out and setting: next, `CCC(C)C(=O)OC1CCC(=NOCc2cccnc2)C2=CC(=O)C(C)C(CCC(O)CC(O)CC(=O)O)C21` (stereo not shown) [Example 10b, Sodium 1-(2-methylbutyryl)-3,4-dihydro-6-oxo-4-(3-pyridylmethyl)oxyiminoiso-ML-236A Carboxylate]: 7.50; `CCC(C)C(=O)OC1CCC(=NOCc2ccco2)C2=CC(=O)C(C)C(CCC(O)CC(O)CC(=O)O)C21` (stereo not shown) [Example 11b, Sodium 1-(2-methylbutyryl)-3,4-dihydro-6-oxo-4-furfuryl-oxyiminoiso-ML-236ACarboxylate]: 7.44; `CCC(C)C(=O)OC1CCC(=NOCC=C(C)C)C2=CC(=O)C(C)C(CCC(O)CC(O)CC(=O)O)C21` (stereo not shown) [Example 17b, Sodium 1-(2-methylbutyryl)-3,4-dihydro-6-oxo-4-(3-methyl-2-butenyl)oxyiminoiso-ML-236A Carboxylate]: 7.67.
